Measured values: ChEMBL document CHEMBL1201862, “PubChem BioAssay data set” (2004)
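Step 1: Grow cells in 96-well plates. Step 2: Expose to compound for 48 hours at 5 concentrations. Step 3: Interpolate endpoints linearly; if unreached, use highest concentration. Here, GI50 denotes the concentration required for 50% inhibition of growth.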 Active and inactive are the calls of the source. Rule as the data show it: active = GI50 up to about 1.1 µM and inactive = higher.

Columns and labels:
Test in all cases: inhibition of tumour cell growth, NCI panel, 48 h
SF-268 = system: SF-268
SNB-75 = system: SNB-75
KM12 = system: KM12
NCI-H23 = system: NCI-H23
OVCAR-5 = system: OVCAR-5
T47D = system: T47D
COLO 205 = system: COLO 205
MDA-N = system: MDA-N
M14 = system: M14
RPMI-8226 = system: RPMI-8226
SNB-19 = system: SNB-19
Hs-578T = system: Hs-578T
786-0 = system: 786-0
HOP-92 = system: HOP-92
HL-60 = system: HL-60
SW-620 = system: SW-620
OVCAR-4 = system: OVCAR-4
SN12C = system: SN12C
A549 = system: A549
DU-145 = system: DU-145
NCI/ADR-RES = system: NCI/ADR-RES
HCT-116 = system: HCT-116
OVCAR-3 = system: OVCAR-3
UACC-257 = system: UACC-257
LOX IMVI = system: LOX IMVI
SR = system: SR
HT-29 = system: HT-29
NCI-H460 = system: NCI-H460
MDA-MB-231 = system: MDA-MB-231
IGROV-1 = system: IGROV-1
MCF7 = system: MCF7
UACC-62 = system: UACC-62
MOLT-4 = system: MOLT-4
HCC 2998 = system: HCC 2998
RXF 393 = system: RXF 393
CAKI-1 = system: CAKI-1
SK-MEL-5 = system: SK-MEL-5
SK-MEL-28 = system: SK-MEL-28
UO-31 = system: UO-31
OVCAR-8 = system: OVCAR-8
Malme-3M = system: Malme-3M
HOP-62 = system: HOP-62
SF-295 = system: SF-295
CCRF-CEM = system: CCRF-CEM
PC-3 = system: PC-3
NCI-H522 = system: NCI-H522
NCI-H226 = system: NCI-H226
SF-539 = system: SF-539
SK-OV-3 = system: SK-OV-3
MDA-MB-435 = system: MDA-MB-435
K562 = system: K562
ACHN = system: ACHN
TK-10 = system: TK-10
EKVX = system: EKVX
BT-549 = system: BT-549
HCT-15 = system: HCT-15

C/C(=C\CNc1ncnc2c1ncn2CCC#N)CO
GI50 (SF-268): > 100 µM (inactive)
GI50 (SNB-75): > 100 µM (inactive)
GI50 (KM12): > 100 µM (inactive)
GI50 (NCI-H23): > 100 µM (inactive)
GI50 (OVCAR-5): > 100 µM (inactive)
GI50 (T47D): > 100 µM (inactive)
GI50 (COLO 205): > 100 µM (inactive)
GI50 (MDA-N): > 100 µM (inactive)
GI50 (M14): > 100 µM (inactive)
GI50 (RPMI-8226): > 100 µM (inactive)
GI50 (SNB-19): > 100 µM (inactive)
GI50 (Hs-578T): > 100 µM (inactive)
GI50 (786-0): > 100 µM (inactive)
GI50 (HOP-92): > 100 µM (inactive)
GI50 (HL-60): > 100 µM (inactive)
GI50 (SW-620): > 100 µM (inactive)
GI50 (OVCAR-4): > 100 µM (inactive)
GI50 (SN12C): > 100 µM (inactive)
GI50 (A549): > 100 µM (inactive)
GI50 (DU-145): > 100 µM (inactive)
GI50 (NCI/ADR-RES): > 100 µM (inactive)
GI50 (HCT-116): > 100 µM (inactive)
GI50 (OVCAR-3): > 100 µM (inactive)
GI50 (UACC-257): > 100 µM (inactive)
GI50 (LOX IMVI): > 100 µM (inactive)
GI50 (SR): > 100 µM (inactive)
GI50 (HT-29): > 100 µM (inactive)
GI50 (NCI-H460): > 100 µM (inactive)
GI50 (MDA-MB-231): > 100 µM (inactive)
GI50 (IGROV-1): > 100 µM (inactive)
GI50 (MCF7): > 100 µM (inactive)
GI50 (UACC-62): > 100 µM (inactive)
GI50 (MOLT-4): > 100 µM (inactive)
GI50 (HCC 2998): > 100 µM (inactive)
GI50 (RXF 393): > 100 µM (inactive)
GI50 (CAKI-1): > 100 µM (inactive)
GI50 (SK-MEL-5): > 100 µM (inactive)
GI50 (SK-MEL-28): > 100 µM (inactive)
GI50 (UO-31): > 100 µM (inactive)
GI50 (OVCAR-8): > 100 µM (inactive)
GI50 (Malme-3M): > 100 µM (inactive)
GI50 (HOP-62): > 100 µM (inactive)
GI50 (SF-295): > 100 µM (inactive)
GI50 (CCRF-CEM): > 100 µM (inactive)
GI50 (PC-3): > 100 µM (inactive)
GI50 (NCI-H522): > 100 µM (inactive)
GI50 (NCI-H226): > 100 µM (inactive)
GI50 (SF-539): > 100 µM (inactive)
GI50 (SK-OV-3): > 100 µM (inactive)
GI50 (MDA-MB-435): > 100 µM (inactive)
GI50 (K562): > 100 µM (inactive)
GI50 (ACHN): > 100 µM (inactive)
GI50 (TK-10): > 100 µM (inactive)
GI50 (EKVX): > 100 µM (inactive)

Cc1cn(S(=O)(=O)c2ccccc2)c2c(OCc3ccccc3)cc(NC(=O)c3cc4cc([N+](=O)[O-])ccc4s3)cc12
GI50 (SNB-75): 68.9 µM (inactive)
GI50 (NCI-H23): > 100 µM (inactive)
GI50 (BT-549): > 100 µM (inactive)
GI50 (HCT-15): > 100 µM
GI50 (OVCAR-5): > 100 µM (inactive)
GI50 (COLO 205): > 100 µM (inactive)
GI50 (M14): 37.8 µM (inactive)
GI50 (RPMI-8226): > 100 µM (inactive)
GI50 (Hs-578T): > 100 µM (inactive)
GI50 (HL-60): 91 µM (inactive)
GI50 (SW-620): > 100 µM (inactive)
GI50 (OVCAR-4): > 100 µM (inactive)
GI50 (A549): > 100 µM (inactive)
GI50 (DU-145): > 100 µM (inactive)
GI50 (NCI/ADR-RES): > 100 µM (inactive)
GI50 (LOX IMVI): > 100 µM (inactive)
GI50 (NCI-H460): > 100 µM (inactive)
GI50 (MDA-MB-231): 49.1 µM (inactive)
GI50 (IGROV-1): > 100 µM (inactive)
GI50 (MOLT-4): 59.6 µM (inactive)
GI50 (HCC 2998): > 100 µM (inactive)
GI50 (RXF 393): > 100 µM (inactive)
GI50 (CAKI-1): > 100 µM (inactive)
GI50 (SK-MEL-5): > 100 µM (inactive)
GI50 (SK-MEL-28): > 100 µM (inactive)
GI50 (UO-31): > 100 µM (inactive)
GI50 (OVCAR-8): > 100 µM (inactive)
GI50 (Malme-3M): 89.7 µM (inactive)
GI50 (HOP-62): > 100 µM (inactive)
GI50 (SF-295): 58.7 µM (inactive)
GI50 (CCRF-CEM): 38.9 µM (inactive)
GI50 (NCI-H522): > 100 µM (inactive)
GI50 (SK-OV-3): > 100 µM (inactive)
GI50 (ACHN): > 100 µM (inactive)
GI50 (TK-10): > 100 µM (inactive)
GI50 (EKVX): > 100 µM (inactive)
